Results on two compounds are retold here after publication PMC7538598 (Scientific Reports, 2020).

Assay [1] has as its system GlyR. The note with it: full agonist, maximal current responses; cited from earlier work.
In assay [2] the target is T1, α1 GlyR (Homo sapiens, UniProt P23415).
T1 construct: GFP (N); expressed in transfected cells; host or cells: Xenopus laevis oocytes (cRNA injection)
T1 sequence (P23415 29-457): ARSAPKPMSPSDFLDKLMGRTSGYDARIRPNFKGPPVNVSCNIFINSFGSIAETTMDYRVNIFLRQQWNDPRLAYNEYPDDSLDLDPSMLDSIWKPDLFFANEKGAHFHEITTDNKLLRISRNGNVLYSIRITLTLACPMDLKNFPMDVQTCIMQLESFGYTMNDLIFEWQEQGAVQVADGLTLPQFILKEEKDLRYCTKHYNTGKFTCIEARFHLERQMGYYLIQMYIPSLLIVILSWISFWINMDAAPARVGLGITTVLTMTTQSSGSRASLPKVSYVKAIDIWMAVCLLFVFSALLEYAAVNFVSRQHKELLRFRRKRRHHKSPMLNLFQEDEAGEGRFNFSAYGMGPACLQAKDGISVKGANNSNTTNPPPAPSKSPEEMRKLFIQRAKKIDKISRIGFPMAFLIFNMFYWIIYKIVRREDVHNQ
Kind of assay: Two-electrode voltage-clamp whole-cell current recordings in X. laevis oocytes expressing α1 GlyR. Format: cell-based.

The target in assay [3] is T2, α1-GFP GlyR (Homo sapiens, UniProt P23415).
T2 construct: made in house; host or cells: Xenopus laevis oocytes injected with cRNA; total solubilized membranes in SMA nanodiscs
T2 sequence (P23415 29-457): T1 sequence (P23415 29-457)
Nature of the assay: MST of α1-GFP GlyR SMA-copolymer nanodiscs (total solubilized membranes) from X. laevis oocytes. Format: binding. The note with it: mean ± SEM, read-out: cEC50 (MST). Here is the method:
cRNA was synthesized using the AmpliCap-Max T7 High Yield Message Maker Kit (Cellscript, Madison, WI, USA). Therefore GFP-GlyR α1 in pCDNA3.1(+) was linearized with NotI. Oozytes were surgically taken from female X. laevis after anesthesia with 0.1% Tricaine in water. For SMA-copolymer solubilization, 300–400 oocytes were injected with 50 ng in a volume of 50.6 nl of cRNA. After injection the oocytes were incubated in ND-96 solution (96 mM NaCl, 2 mM KCl, 1 mM CaCl2, 1 mM MgCl2, 5 mM HEPES, pH 7.4) at 18 °C for 1–2 days.

On to `NCC(=O)O` [glycine], for which, in assay [1], the “opening times in single-channel recordings” value is 95–98%.

For `NCCS(=O)(=O)O` [taurine], the EC50 in assay [2] (α1 GlyR expressed in X. laevis oocytes, clamped at −70 mV, mean ± SEM, read-out: aEC50 (electrophysiology)) was found to be 843 ± 16 µM; in assay [3] it was 474 ± 66.1 µM. The “maximal current compared to glycine” value in assay [2] (α1 GlyR in X. laevis oocytes, normalized to maximum glycine currents, n = 3) amounted to 61%.
